Patent EP1849776A1, “Azepane- or Azocane-substituted pyrazoline compounds, their preparation and use as medicaments” (LABORATORIOS DEL DR. ESTEVE, S.A., priority 2006, dated 2007)

Legend:
Male NMRI mice = experiment: Mouse tetrad model, antagonistic activity against Win 55212-2; format: in vivo; details: against Win 55212-2 (1.25 mg/kg intravenous), substance injected 5 minutes before the agonist, tetrad component not specified
Source text: Substances with affinity for cannabinoid receptors are known to produce a wide range of pharmacological effects. It is also known that intravenous administration of a substance with affinity for cannabinoid receptors in mice produces analgesia , hypothermia, sedation and catalepsy. Individually, none of these effects can be considered as proof that a tested substance has affinity for cannabinoid-receptors, since all of these effects are common for various classes of centrally active agents. However, substances, which show all of these effects, i.e. substances that are active in this so-called tetrad model are considered to have affinity for the cannabinoid receptors. It has further been shown that cannabinoid receptor antagonists are higly effective in blocking the effects of a cannabinoid agonist in the mouse tetrad model.
The tetrad model is described, for example, in the publication of A. C. Howlett et al, International Union of Pharmacology XXVII. […]
Before testing in the behavioral procedures given below, mice are acclimatized to the experimental setting. Pre-Treatment control values are determined for analgesia hot plate latency (in seconds), rectal temperature, sedation and catalepsy.
In order to determine the agonistic activty of the substance to be tested, the mice are injected intravenously with the substance to be tested or the vehicle alone. 15 minutes after injection, latency in hot plate analgesia is measured. Rectal temperature, sedation and catalepsy are measured 20 minutes after injection.
In order to determine the antagonistic activity the identical procedure is used as for the determination of the agonistic effects, but with the difference that the substance to be evaluated for its antagonistic activity is injectected 5 minutes before the intravenous injection of 1.25 mg/kg Win-55,212 a known cannabinoid-receptor agonist.
The hot plate analgesia is determined according to the method described in Woolfe D. et al. "The evaluation of analgesic action of pethidine hydrochloride (Demerol)", J. Pharmacol. Exp. Ther. 80, 300-307,1944. […]

CB1-Receptor = molecular target: T1, CB1-Receptor (Homo sapiens, UniProt P21554); experiment: In-vitro determination of affinity to CB1 receptor (radioligand binding); details: transfected human CB1 receptors of Receptor Biology, Inc.; radioligand [^3H]-CP55940; read-out: CB1-Receptor Radiologand:[^3H]-CP55940 IC50
T1 construct: purchased Receptor Biology, Inc
T1 sequence (P21554 whole entry): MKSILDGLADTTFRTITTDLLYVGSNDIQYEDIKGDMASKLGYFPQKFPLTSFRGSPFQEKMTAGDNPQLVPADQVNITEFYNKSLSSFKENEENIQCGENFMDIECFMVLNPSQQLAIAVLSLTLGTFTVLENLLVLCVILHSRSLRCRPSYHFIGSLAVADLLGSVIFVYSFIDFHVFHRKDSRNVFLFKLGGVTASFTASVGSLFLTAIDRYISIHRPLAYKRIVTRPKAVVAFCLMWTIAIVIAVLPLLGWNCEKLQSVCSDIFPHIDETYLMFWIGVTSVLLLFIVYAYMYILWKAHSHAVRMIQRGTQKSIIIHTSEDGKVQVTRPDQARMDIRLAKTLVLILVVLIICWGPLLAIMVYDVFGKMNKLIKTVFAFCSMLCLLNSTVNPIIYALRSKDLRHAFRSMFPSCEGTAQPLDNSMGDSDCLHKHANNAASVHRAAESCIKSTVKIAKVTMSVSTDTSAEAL
Protocol: The in-vitro determination of the affinity of the inventive quaternary ammonium salts of substituted pyrazoline compounds to CB1/CB2-Rezeptors is carried out as described in the publication of Ruth A. Ross, Heather C. Brockie et al., "Agonist-inverse agonist characterization at CB1 and CB2 cannabinoid receptors of L-759633, L759656 and AM630", British Journal of Pharmacology, 126, 665-672, (1999), whereby the transfected human CB1 and CB2 receptors of Receptor Biology, Inc. are used. The radioligand used for both receptors is [^3H]-CP55940. The respective parts of the description are hereby incorporated by reference and forms part of the present disclosure.

IC50 (CB1-Receptor) | SMILES | Antagonistic Effect in (%) (Male NMRI mice)
– | O=C(NN1CCCCCC1)C1=NN(c2ccc(Cl)cc2Cl)C(c2ccc(Br)cc2)C1 (centres unmarked) [Example 4, N-(azepan-1-yl)-5-(4-bromophenyl)-1-(2,4-dichlorophenyl)-4,5-dihydro-1H-pyrazole-3-carboxamide] | 100±6%
7.9 nM | O=C(NN1CCCCCC1)C1=NN(c2ccc(Cl)cc2Cl)[C@@H](c2ccc(Cl)cc2)C1 [Example 2, (R)-N-(azepan-1-yl)-5-(4-chlorophenyl)-1-(2,4-dichlorophenyl)-4,5-dihydro-1H-pyrazole-3-carboxamide] | 137.2%
25 nM | O=C(NN1CCCCCC1)C1=NN(c2ccc(Cl)cc2Cl)C(c2ccc(Cl)cc2)C1 (centres unmarked) [Example 1, N-(azepan-1-yl)-5-(4-chlorophenyl)-1-(2,4-dichlorophenyl)-4,5-dihydro-1H-pyrazole-3-carboxamide] | 116±2%
